Data reported in the supplement of paper PMC10307832.

Key:
Test in all cases: relative viability (nuclei count vs DMSO), 5 days (fraction); higher = more cells survive
[1] = compound: CCC1=CN=CN=C1N2CCN(CC2)CC3=NC4=C(N3)C=C(C=C4)C(F)(F)F + COc1cccc2cc(-c3nc([C@H]4CC[C@H](C(=O)O)CC4)n4ncnc(N)c34)[nH]c12 [OSI-027] (partner 0.5 µM)
Summary of the method: (§1)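 Values are medians from duplicate plates. Each reflects relative viability, defined as the nuclei count of treated wells over that of vehicle wells. Lung cancer cell lines in 1536-well plates were pin-tool dosed one day after seeding with one drug alone or with a fixed anchor-drug dose plus five library-drug doses (not always all listed) in √10 steps, then fixed, stained and imaged at 4× after 5 days.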

[2] = compound: CCn1c(-c2nonc2N)nc2cnc(Oc3cccc(NC(=O)c4ccc(OCCN5CCOCC5)cc4)c3)cc21 + N=C(N)NC(=N)NCCc1ccccc1 [Phenformin] (partner 250 µM)
Summary of the method: as §1

[3] = compound: CCn1c(-c2nonc2N)nc2cnc(Oc3cccc(NC(=O)c4ccc(OCCN5CCOCC5)cc4)c3)cc21 + CC(=O)Nc1cccc(-n2c(=O)n(C3CC3)c(=O)c3c(Nc4ccc(I)cc4F)n(C)c(=O)c(C)c32)c1 [Trametinib] (partner 0.02 µM)
Summary of the method: as §1

[4] = compound: CCC1=CN=CN=C1N2CCN(CC2)CC3=NC4=C(N3)C=C(C=C4)C(F)(F)F + Cc1nc(Nc2ncc(C(=O)Nc3c(C)cccc3Cl)s2)cc(N2CCN(CCO)CC2)n1 [Dasatinib] (partner 0.075 µM)
Summary of the method: as §1

Cell Line | relative viability ([1]; first compound 0.04 µM) | relative viability ([1]; first compound 0.1265 µM) | relative viability ([1]; first compound 0.4 µM) | relative viability ([1]; first compound 1.265 µM) | relative viability ([1]; first compound 4 µM) | relative viability ([2]; first compound 0.04 µM) | relative viability ([2]; first compound 0.1265 µM) | relative viability ([2]; first compound 0.4 µM) | relative viability ([2]; first compound 1.265 µM) | relative viability ([2]; first compound 4 µM) | relative viability ([3]; first compound 0.04 µM) | relative viability ([3]; first compound 0.1265 µM) | relative viability ([3]; first compound 0.4 µM) | relative viability ([3]; first compound 1.265 µM) | relative viability ([3]; first compound 4 µM) | relative viability ([4]; first compound 0.04 µM) | relative viability ([4]; first compound 0.1265 µM) | relative viability ([4]; first compound 0.4 µM) | relative viability ([4]; first compound 1.265 µM) | relative viability ([4]; first compound 4 µM)
NCI-H838 | 0.443 | 0.438 | 0.403 | 0.313 | 0.354 | 0.501 | 0.285 | 0.201 | 0.227 | 0.222 | 0.347 | 0.231 | 0.213 | 0.17 | 0.188 | 0.295 | 0.237 | 0.28 | 0.26 | 0.289
HARA | 0.317 | 0.456 | 0.392 | – | 0.529 | 0.585 | 0.369 | 0.231 | 0.0981 | 0.074 | 0.494 | 0.874 | 0.687 | 0.333 | 0.254 | 0.371 | 0.337 | 0.19 | – | 0.203
NCI-H23 | 0.603 | 0.65 | 0.641 | 0.58 | 0.551 | 0.879 | 0.798 | 0.662 | 0.61 | 0.532 | 0.413 | 0.405 | 0.407 | 0.281 | 0.305 | 0.794 | 0.897 | 0.653 | 0.769 | 0.865
LCLC-97TM1 | 0.477 | 0.582 | 0.452 | 0.506 | 0.577 | 0.485 | 0.431 | 0.23 | 0.463 | 0.361 | 0.257 | 0.192 | – | 0.197 | 0.19 | 0.881 | 0.765 | 0.668 | 0.816 | 0.897
LC-2-ad | 0.826 | 0.908 | 0.913 | 0.69 | 0.791 | 0.679 | 0.563 | 0.397 | 0.362 | 0.524 | 0.991 | 0.952 | 0.983 | 0.712 | 0.623 | 0.489 | 0.542 | 0.508 | 0.507 | 0.484
SW 1573 | 0.529 | 0.582 | 0.53 | 0.49 | 0.499 | 0.513 | 0.345 | 0.344 | 0.282 | 0.154 | 0.716 | 0.577 | 0.478 | 0.229 | 0.19 | 0.382 | 0.453 | 0.5 | 0.494 | 0.452
EKVX | 0.615 | 0.73 | 0.705 | – | 0.717 | 0.275 | 0.242 | 0.136 | 0.227 | 0.236 | 0.411 | 0.389 | 0.404 | 0.371 | 0.415 | 0.558 | 0.484 | 0.527 | 0.491 | 0.415
NCI-H2087 | 0.584 | 0.56 | 0.385 | 0.451 | 0.5 | 0.598 | 0.458 | 0.474 | 0.432 | 0.372 | 0.209 | 0.293 | 0.203 | 0.228 | 0.231 | 0.729 | 0.809 | 0.529 | 0.508 | 0.598
HCC-827 | 0.829 | 0.69 | 0.719 | – | 0.673 | 0.489 | 0.484 | 0.439 | 0.414 | 0.399 | 0.586 | 0.662 | 0.683 | 0.573 | 0.689 | 0.323 | 0.298 | 0.313 | 0.364 | 0.355
NCI-H661 | 0.629 | 0.674 | 0.669 | 0.586 | 0.621 | 0.258 | 0.253 | 0.203 | 0.23 | 0.195 | 0.469 | 0.498 | 0.355 | 0.451 | 0.346 | 0.951 | 0.872 | 0.827 | 0.772 | 0.909
CAL-12T | 0.481 | 0.691 | 0.545 | 0.577 | 0.627 | 0.686 | 0.596 | 0.48 | 0.418 | 0.388 | 0.354 | 0.363 | 0.372 | 0.346 | 0.345 | 0.336 | 0.352 | 0.417 | 0.518 | 0.36
NCI-H2342 | 0.607 | 0.577 | 0.574 | 0.479 | 0.586 | 0.71 | 0.585 | 0.581 | 0.449 | 0.66 | 0.803 | 0.85 | 0.989 | 0.621 | 0.801 | 0.317 | 0.316 | 0.327 | 0.32 | 0.338
SW 900 | 0.529 | 0.543 | 0.539 | 0.421 | 0.476 | 0.71 | 0.548 | 0.506 | 0.39 | 0.548 | 0.602 | 0.802 | 0.828 | 0.918 | 0.849 | 0.601 | 0.544 | 0.571 | 0.603 | 0.448
EPLC-272H | 0.255 | 0.302 | 0.264 | 0.308 | 0.276 | 0.369 | 0.306 | 0.216 | 0.245 | 0.229 | 0.365 | 0.347 | 0.256 | 0.213 | 0.197 | 0.332 | 0.33 | 0.313 | 0.291 | 0.421
A-427 | 0.432 | 0.476 | 0.413 | 0.434 | 0.417 | 0.471 | 0.377 | 0.227 | 0.167 | 0.114 | 0.879 | 0.839 | 0.727 | 0.381 | 0.373 | 0.563 | 0.753 | 0.659 | 0.614 | 0.655
NCI-H650 | 0.444 | 0.427 | 0.555 | 0.543 | 0.511 | 0.485 | 0.381 | 0.258 | 0.246 | 0.292 | 1.11 | 0.826 | 0.597 | 0.587 | 0.588 | 0.4 | 0.413 | 0.456 | 0.441 | 0.494
NCI-H1975 | 0.766 | 0.68 | 0.676 | 0.579 | 0.64 | 0.343 | 0.277 | 0.208 | 0.186 | 0.168 | 0.261 | 0.256 | 0.219 | 0.154 | 0.176 | 0.402 | 0.435 | 0.385 | 0.325 | 0.293
NCI-H358 | 0.867 | 0.656 | 0.772 | 0.62 | 0.764 | 0.352 | 0.295 | 0.224 | 0.27 | 0.198 | 0.14 | 0.161 | 0.115 | 0.129 | 0.113 | 0.234 | 0.147 | 0.179 | 0.14 | 0.172
RERF-LC-KJ | 0.517 | 0.584 | 0.602 | 0.517 | 0.601 | 0.487 | 0.42 | 0.379 | 0.289 | 0.324 | 0.862 | 0.898 | 0.826 | 0.562 | 0.589 | 0.768 | 0.714 | 0.846 | 0.69 | 0.696
NCI-H1792 | 0.89 | 0.684 | 0.698 | 0.668 | 0.547 | 0.333 | 0.177 | 0.0802 | 0.145 | 0.225 | 0.425 | 0.47 | 0.401 | 0.354 | 0.302 | 1 | 0.754 | 0.515 | 0.685 | 0.602
NCI-H647 | 0.671 | 0.855 | 0.557 | 0.413 | 0.462 | 0.455 | 0.399 | 0.357 | 0.339 | 0.272 | 0.494 | 0.38 | 0.261 | 0.303 | 0.286 | 0.166 | 0.174 | 0.186 | 0.223 | 0.201
SK-LU-1 | 0.386 | 0.315 | 0.337 | 0.3 | 0.357 | 0.488 | 0.409 | 0.333 | 0.251 | 0.238 | 0.481 | 0.386 | 0.378 | 0.254 | 0.311 | 0.18 | 0.172 | 0.2 | 0.169 | 0.205
NCI-H441 | 0.478 | 0.611 | 0.543 | 0.56 | 0.6 | 0.89 | 0.96 | – | 0.654 | 0.623 | 0.466 | 0.43 | 0.289 | 0.38 | 0.477 | 0.761 | 0.545 | 0.581 | 0.668 | 0.605
ABC-1 | 0.492 | 0.416 | 0.351 | 0.507 | 0.555 | 0.23 | 0.266 | 0.209 | 0.277 | 0.217 | – | – | – | – | – | 0.66 | 0.507 | 0.614 | 0.495 | 0.449
NCI-H1563 | 0.813 | 0.788 | 0.733 | 0.685 | 0.821 | 0.592 | 0.61 | 0.507 | 0.582 | 0.553 | – | – | – | – | – | 0.472 | 0.476 | 0.489 | 0.435 | 0.513
NCI-H1648 | 0.259 | 0.278 | – | 0.278 | 0.314 | – | – | – | – | – | 0.511 | 0.431 | 0.576 | 0.779 | 0.705 | – | – | – | – | –
A549 | – | – | – | – | – | 0.303 | 0.151 | 0.0713 | 0.0328 | 0.0406 | – | – | – | – | – | – | – | – | – | –
NCI-H1623 | 0.399 | 0.39 | 0.431 | 0.437 | 0.432 | 0.629 | 0.594 | 0.499 | 0.536 | 0.605 | – | – | – | – | – | 0.455 | 0.501 | 0.548 | 0.564 | 0.562
HCC-44 | 0.479 | 0.446 | 0.532 | 0.416 | 0.406 | 0.249 | 0.216 | 0.113 | 0.096 | 0.074 | 1.06 | 1.12 | 1.04 | 1.05 | 1.03 | – | – | – | – | –
